Results on 32 compounds are retold here after US20230183237A1, “COMPETITIVE AND NONCOMPETITIVE INHIBITORS OF THE MUSCARINIC ACETYLCHOLINE RECEPTOR M5” (Vanderbilt University, priority 2020, published 2023).

One may read the IC50 as the concentration at which inhibition is half-maximal.

The structures appear in SMILES notation. Some results are limits rather than exact numbers.

The target in the experiment is T1, hM5 (Homo sapiens, UniProt P08912).
T1 construct: expressed in transfected cells
T1 sequence (P08912 1-532): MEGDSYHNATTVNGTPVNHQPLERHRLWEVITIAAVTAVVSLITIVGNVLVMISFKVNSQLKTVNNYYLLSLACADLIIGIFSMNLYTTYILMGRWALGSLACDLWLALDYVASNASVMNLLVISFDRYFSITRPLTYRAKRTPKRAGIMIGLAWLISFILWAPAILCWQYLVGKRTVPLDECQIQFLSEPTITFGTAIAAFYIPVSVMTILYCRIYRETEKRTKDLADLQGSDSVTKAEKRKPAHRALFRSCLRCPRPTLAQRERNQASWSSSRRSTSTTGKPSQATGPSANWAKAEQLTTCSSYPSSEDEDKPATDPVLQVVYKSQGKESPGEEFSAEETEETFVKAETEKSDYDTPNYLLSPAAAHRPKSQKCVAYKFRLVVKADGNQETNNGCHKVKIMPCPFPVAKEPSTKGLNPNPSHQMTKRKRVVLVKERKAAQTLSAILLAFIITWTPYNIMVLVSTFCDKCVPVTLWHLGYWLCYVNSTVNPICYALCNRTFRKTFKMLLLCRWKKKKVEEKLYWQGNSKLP
Kind of experiment: Calcium mobilization concentration-response (IC50 vs EC80 acetylcholine), CHO hM5. It is filed as cell-based. The conditions noted are these: CELL LINE hM5; vs EC80 acetylcholine; read-out: IC50. The procedure, abridged:
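IC50 values derive from percent maximal acetylcholine response after an EC80 ACh addition, measured as kinetic calcium fluorescence (static ratio, max−min). Test compounds were added 140 s before agonist. Cells: stable hM5-CHO in HEPES-buffered HBSS with 2.5 mM probenecid, pH 7.4; ≥3 independent triplicate determinations.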
(In general: A change in cytosolic calcium serves as a functional read-out for many receptors and channels.)
For the compound `COc1c(S(=O)(=O)N2CCC(c3cn4ncnc4cc3F)CC2)cnn1C` [Compound 574, 7-fluoro-6-(1-((5-methoxy-1-methyl-1H-pyrazol-4-yl)sulfonyl)piperidin-4-yl)-[1,2,4]triazolo[1,5-a]pyridine], the IC50 worked out at 137 nM.
`COc1c(S(=O)(=O)N2CCC(c3cn4ncnc4cc3Cl)CC2)cnn1C` [Compound 575, 7-chloro-6-(1-((5-methoxy-1-methyl-1H-pyrazol-4-yl)sulfonyl)piperidin-4-yl)-[1,2,4]triazolo[1,5-a]pyridine]: the half-inhibitory concentration (IC50) turned out to be 6 nM.
Under `COc1c(S(=O)(=O)N2CCC(c3cn4ncnc4c(F)c3C)CC2)cnn1C` [Compound 576, 8-fluoro-6-(1-((5-methoxy-1-methyl-1H-pyrazol-4-yl)sulfonyl)piperidin-4-yl)-7-methyl-[1,2,4]triazolo[1,5-a]pyridine] stands 19 nM; under `Cc1cc2ncnn2cc1C1CCN(S(=O)(=O)c2cnn(C)c2C2CCNCC2)CC1` [Compound 577, 7-Methyl-6-(1-((1-methyl-5-(piperidin-4-yl)-1H-pyrazol-4-yl)sulfonyl)piperidin-4-yl)-[1,2,4]triazolo[1,5-a]pyridine], greater than 10000 nM; under `[2H]C1([2H])CC(c2cn3ncnc3cc2Cl)CC([2H])([2H])N1S(=O)(=O)c1cn(C)nn1` [Compound 579, 7-chloro-6-(1-((1-methyl-1H-1,2,3-triazol-4-yl)sulfonyl)piperidin-4-yl-2,2,6,6-d4)-[1,2,4]triazolo[1,5-a]pyridine], 29 nM.
Regarding `[2H]C1([2H])CC(c2cn3ncnc3cc2Cl)CC([2H])([2H])N1S(=O)(=O)c1nncn1C` [Compound 580, 7-chloro-6-(1-((4-methyl-4H-1,2,4-triazol-3-yl)sulfonyl)piperidin-4-yl-2,2,6,6-d4)-[1,2,4]triazolo[1,5-a]pyridine], the IC50 was 98 nM.
Turning to `Cc1cc2nccn2cc1C1CCN(S(=O)(=O)c2cnn(C)c2Cl)CC1` [Compound 581, 6-(1-((5-chloro-1-methyl-1H-pyrazol-4-yl)sulfonyl)piperidin-4-yl)-7-methylimidazo[1,2-a]pyridine], the IC50 is 25 nM.
As for `Cc1ncc(S(=O)(=O)N2CCC(c3cn4ccnc4cc3C)CC2)o1` [Compound 582, 2-methyl-5-((4-(7-methylimidazo[1,2-a]pyridin-6-yl)piperidin-1-yl)sulfonyl)oxazole], the IC50 was found to be 831 nM.
Under `Cc1ncc(S(=O)(=O)N2CCC(c3cn4ccnc4cc3C)CC2)s1` [Compound 583, 2-methyl-5-((4-(7-methylimidazo[1,2-a]pyridin-6-yl)piperidin-1-yl)sulfonyl)thiazole] stands 2070 nM; under `CCc1cc2ncnn2cc1C1CCN(S(=O)(=O)c2cnn(C)c2OC)CC1` [Compound 584, 7-ethyl-6-(1-((5-methoxy-1-methyl-1H-pyrazol-4-yl)sulfonyl)piperidin-4-yl)-[1,2,4]triazolo[1,5-a]pyridine], 77 nM; under `COc1c(S(=O)(=O)N2CCC(c3cn4ncnc4cc3C(F)(F)F)CC2)cnn1C` [Compound 585, 6-(1-((5-methoxy-1-methyl-1H-pyrazol-4-yl)sulfonyl)piperidin-4-yl)-7-(trifluoromethyl)-[1,2,4]triazolo[1,5-a]pyridine], 67 nM.
Under `COc1c(S(=O)(=O)N2CCC(F)(c3cn4ncnc4cc3C)CC2)cnn1C` [Compound 586, 6-(4-fluoro-1-((5-methoxy-1-methyl-1H-pyrazol-4-yl)sulfonyl)piperidin-4-yl)-7-methyl-[1,2,4]triazolo[1,5-a]pyridine] stands 147 nM.
As to `Cn1ncc(S(=O)(=O)N2CCC(c3cc(-c4ccco4)n[nH]3)CC2)c1Cl` [Compound 587], the IC50 was 1460 nM.
Under `Cc1cc2ncnn2cc1C1(F)CCN(S(=O)(=O)c2cn(C)nn2)CC1` [Compound 588, 6-(4-fluoro-1-((1-methyl-1H-1,2,3-triazol-4-yl)sulfonyl)piperidin-4-yl)-7-methyl-[1,2,4]triazolo[1,5-a]pyridine] stands 2110 nM; under `Cc1ncc(S(=O)(=O)N2CCC(c3cn4ccnc4cc3Cl)CC2)s1` [Compound 589, 5-((4-(7-chloroimidazo[1,2-a]pyridin-6-yl)piperidin-1-yl)sulfonyl)-2-methylthiazole], 530 nM; under `Cn1nc(-c2ccco2)cc1C1CCN(S(=O)(=O)c2cnn(C)c2Cl)CC1` [Compound 590, 1-((5-Chloro-1-methyl-1H-pyrazol-4-yl)sulfonyl)-4-(3-(furan-2-yl)-1-methyl-1H-pyrazol-5-yl)piperidine], 3100 nM.
Turning to `Cn1nc(C2CCN(S(=O)(=O)c3cnn(C)c3Cl)CC2)cc1-c1ccco1` [Compound 591, 1-((5-Chloro-1-methyl-1H-pyrazol-4-yl)sulfonyl)-4-(5-(furan-2-yl)-1-methyl-1H-pyrazol-3-yl)piperidine], the IC50 is greater than 10000 nM.
Turning to `Cn1ncc(S(=O)(=O)N2CCC(c3c4c(nn3C)CCCC4)CC2)c1Cl` [Compound 592, 3-(1-((5-chloro-1-methyl-1H-pyrazol-4-yl)sulfonyl)piperidin-4-yl)-2-methyl-4,5,6,7-tetrahydro-2H-indazole], the IC50 came to 325 nM.
With `Cc1ncc(S(=O)(=O)N2CCC(c3c4c(nn3C)CCCC4)CC2)s1` [Compound 593, 2-methyl-5-((4-(2-methyl-4,5,6,7-tetrahydro-2H-indazol-3-yl)piperidin-1-yl)sulfonyl)thiazole], the IC50 is greater than 10000 nM.
Under `[2H]C1([2H])CC(c2cn3ncnc3cc2C(F)F)CC([2H])([2H])N1S(=O)(=O)c1cnc(C)o1` [Compound 594, 5-((4-(7-(difluoromethyl)-[1,2,4]triazolo[1,5-a]pyridin-6-yl)piperidin-1-yl-2,2,6,6-d4)sulfonyl)-2-methyloxazole] stands 228 nM.
Under `[2H]C1([2H])CC(c2cn3ncnc3cc2C(F)F)CC([2H])([2H])N1S(=O)(=O)c1cn(C)nn1` [Compound 595, 7-(difluoromethyl)-6-(1-((1-methyl-1H-1,2,3-triazol-4-yl)sulfonyl)piperidin-4-yl-2,2,6,6-d4)-[1,2,4]triazolo[1,5-a]pyridine] stands 784 nM; under `Cc1cc2ncnn2cc1C1CCN(S(=O)(=O)c2cnn(C)c2CN2Cc3ncccc3C2=O)CC1` [Compound 597, 6-((1-Methyl-4-((4-(7-methyl-[1,2,4]triazolo[1,5-a]pyridin-6-yl)piperidin-1-yl)sulfonyl)-1H-pyrazol-5-yl)methyl)-6,7-dihydro-5H-pyrrolo[3,4-b]pyridin-5-one], greater than 10000 nM.
Take `Cc1cc2ncnn2cc1C1CCN(S(=O)(=O)c2cnn(C)c2-c2scnc2C)CC1` [Compound 598, 4-Methyl-5-(1-methyl-4-((4-(7-methyl-[1,2,4]triazolo[1,5-a]pyridin-6-yl)piperidin-1-yl)sulfonyl)-1H-pyrazo1-5-yl)thiazole]: the IC50 worked out at 804 nM.
Consider `Cc1nnc(S(=O)(=O)N2CCC(c3cn4ncnc4cc3Cl)CC2)[nH]1` [Compound 599, 7-chloro-6-(1-((5-methyl-4H-1,2,4-triazol-3-yl)sulfonyl)piperidin-4-yl)-[1,2,4]triazolo[1,5-a]pyridine], for which the IC50 is greater than 10000 nM.
Under `COc1ncc(S(=O)(=O)N2CCC(c3cn4ncnc4cc3C)CC2)s1` [Compound 600, 2-methoxy-5-((4-(7-methyl-[1,2,4]triazolo[1,5-a]pyridin-6-yl)piperidin-1-yl)sulfonyl)thiazole] stands 529 nM.
Regarding `Cc1cc2ncnn2cc1C1CCN(S(=O)(=O)c2scnc2C)CC1` [Compound 601, 4-methyl-5-((4-(7-methyl-[1,2,4]triazolo[1,5-a]pyridin-6-yl)piperidin-1-yl)sulfonyl)thiazole], the IC50 came to 5240 nM.
Under `Cc1cc2ncnn2cc1C1CCN(S(=O)(=O)c2cnn(C)c2OC(C)C)CC1` [Compound 603, 6-(1-((5-isopropoxy-1-methyl-1H-pyrazol-4-yl)sulfonyl)piperidin-4-yl)-7-methyl-[1,2,4]triazolo[1,5-a]pyridine] stands 244 nM; under `CC(C)Oc1c(S(=O)(=O)N2CCC(c3cn4ncnc4cc3Cl)CC2)cnn1C` [Compound 604, 7-chloro-6-(1-((5-isopropoxy-1-methyl-1H-pyrazol-4-yl)sulfonyl)piperidin-4-yl)-[1,2,4]triazolo[1,5-a]pyridine], 159 nM.
For `Cc1cc(S(=O)(=O)N2CCC(c3cn4ncnc4cc3CF)CC2)sn1` [Compound 605, 5-((4-(7-(Fluoromethyl)-[1,2,4]triazolo[1,5-a]pyridin-6-yl)piperidin-1-yl)sulfonyl)-3-methylisothiazole], the IC50 turned out to be 26 nM.
Under `Cc1cc(S(=O)(=O)N2CCC(c3cn4ncnc4cc3CCl)CC2)sn1` [Compound 606, 5-((4-(7-(chloromethyl)-[1,2,4]triazolo[1,5-a]pyridin-6-yl)piperidin-1-yl)sulfonyl)-3-methylisothiazole] stands 126 nM; under `Cc1nnc(S(=O)(=O)N2CCC(c3cn4ncnc4cc3Cl)CC2)o1` [Compound 607], 151 nM.
Under `Cc1nsc(S(=O)(=O)N2CCC(c3cn4ncnc4cc3Cl)CC2)n1` [Compound 608, 5-((4-(7-Chloro-[1,2,4]triazolo[1,5-a]pyridin-6-yl)piperidin-1-yl)sulfonyl)-3-methyl-1,2,4-thiadiazole] stands 234 nM.
